Reference: US20240400564A1 (Syndax Pharmaceuticals, Inc, priority 2021, published 2024)
Like-named read-outs stand apart in the source and are kept apart here.

Legend:
[1] = target: T1, human Menin and N-terminal portion of human MLL (amino acids 4-43) (Homo sapiens, UniProt O00255); assay: Menin-MLL competition assay (HTRF); assay type: binding; details: 1 hr incubation
T1 construct: H-FL-Menin diluted to 4 nM in assay buffer
T1 sequence (O00255 1-610): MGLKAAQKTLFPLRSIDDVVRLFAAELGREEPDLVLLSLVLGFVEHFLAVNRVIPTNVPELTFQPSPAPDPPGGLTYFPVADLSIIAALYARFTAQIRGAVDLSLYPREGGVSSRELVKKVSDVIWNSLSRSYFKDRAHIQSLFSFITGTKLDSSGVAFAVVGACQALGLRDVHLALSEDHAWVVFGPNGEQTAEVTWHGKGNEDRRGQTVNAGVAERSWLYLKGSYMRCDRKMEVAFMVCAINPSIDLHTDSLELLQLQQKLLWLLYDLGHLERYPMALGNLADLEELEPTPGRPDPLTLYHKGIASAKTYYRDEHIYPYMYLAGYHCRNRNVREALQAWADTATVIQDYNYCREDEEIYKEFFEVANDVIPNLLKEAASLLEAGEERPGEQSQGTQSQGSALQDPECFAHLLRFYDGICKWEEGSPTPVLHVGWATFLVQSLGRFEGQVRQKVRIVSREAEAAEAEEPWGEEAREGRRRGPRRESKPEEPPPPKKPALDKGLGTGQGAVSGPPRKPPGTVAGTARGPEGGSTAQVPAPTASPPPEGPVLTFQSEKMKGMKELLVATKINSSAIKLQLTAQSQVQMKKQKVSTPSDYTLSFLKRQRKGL
Description: Menin-MLL is a competition assay between human Menin and N-terminal portion of human MLL representing amino acids 4-43 of the protein. The interaction between Menin and MLL peptide was monitored by HTRF employing Terbium labeled anti-His6 antibody directed to the N-terminal His6-tag on recombinant Menin and FITC group covalently attached to the MLL peptide. The N-terminal fragment of MLL, retained in all MLL fusion proteins, is involved in the interactions with Menin, and this protein-protein interaction is critical for the MLL fusion proteins mediated leukemogenic transformations.
For IC50 determination test compounds were prepared as 10 mM DMSO stock solutions. Considering DMSO as the vehicle in the assay system. Lower sub-stocks of 50 μM were prepared from the 10 mM stock solution. To test the compounds in assay, 3.16-fold serial dilutions are made in 100% DMSO. Mid-stock of 50×compounds (50 μM) were serially diluted (3.16 fold) in 100% DMSO in Polypropylene plate. In assay plate 1 micro-litre of the previously prepared compound dilution was stamped. H-FL-Menin diluted to 4 nM in assay buffer (50 mM Tris-HCl, pH 7.4, 50 mM NaCl, freshly prepared 1 mM DTT, 0.01% BSA, 0.005% Triton X-100) was pre-incubated with 8 nM anti-His6-Tb for 30 min at room temperature. FITC-MLL-4-43 was diluted to 2 nM in assay buffer and 25 μL was dispensed into each well of the assay plate followed by addition of 25 μl of pre-incubated H-FL-Menin and anti-His6-Tb mixture. Final concentration H-FL-Menin diluted to 1 nM in assay plate with 2 nM anti-His6-Tb and 1 nM FITC-MLL-4-43. After 1 hr incubation at room temperature, the HTRF signal was measured on the Spark multi-label plate reader. Resulting data were captured as a ratio of RFU520/RFU485×1000. The max values were obtained from 0% inhibition in presence of 2% DMSO and the min. values were 100% inhibition in presence of 1 μM reference compound.

hERG = hERG (Homo sapiens, UniProt Q12809); assay: Patch clamp assay (hERG tail currents, whole-cell); details: 30 μM compound
Description: The 35 mm culture dishes upon which cells were seeded at a density allowing single cells to be recorded were placed on the dish holder of the microscope and continuously perfused (at approximately 1 mL/min) with the bath solution described in section 4.6. All solutions applied to cells including the pipette solution were maintained at room temperature (19° C. to 30° C.). After formation of a Gigaohm seal between the patch electrodes and individual hERG stably transfected HEK 293 cells (pipette resistance range: 2.0 MS to 7.0 MS; seal resistance range: >1GΩ) the cell membrane across the pipette tip was ruptured to assure electrical access to the cell interior (whole-cell patch-configuration). In case the quality of the seal was poor, the process of seal formation was repeated with a different cell and a new pipette. As soon as a stable seal could be established, hERG outward tail currents were measured upon depolarization of the cell membrane to +20 mV for 2 s (activation of channels) from a holding potential of −80 mV and upon subsequent repolarization to −40 mV for 3 s. This voltage protocol (as shown below) was run at least 10 times at intervals of 10 s. If current density was judged to be too low for measurement, another cell was recorded.
During wash-in of the test item the voltage protocol indicated above was run continuously again at 10 s intervals until the steady-state level of block was reached.
The IC50 was determined by fitting the dose response curve with a 2-parameter logistic function (amax=100%).

[2] = system: MLLr leukemia cell line MV4-11; assay: Cell proliferation assay MV4;11 (CellTiter-Glo, 72 hours); assay type: cell-based; details: Homo sapiens, read-out: MV4
In short: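 Cells in IMDM/10% FBS, seeded from a 15,000 cells/ml suspension, were exposed for 72 h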

[3] = MV4-11 cells, 72 hours, CellTiter-Glo, 11 IC50

Chain of hERG (Q12809 whole entry): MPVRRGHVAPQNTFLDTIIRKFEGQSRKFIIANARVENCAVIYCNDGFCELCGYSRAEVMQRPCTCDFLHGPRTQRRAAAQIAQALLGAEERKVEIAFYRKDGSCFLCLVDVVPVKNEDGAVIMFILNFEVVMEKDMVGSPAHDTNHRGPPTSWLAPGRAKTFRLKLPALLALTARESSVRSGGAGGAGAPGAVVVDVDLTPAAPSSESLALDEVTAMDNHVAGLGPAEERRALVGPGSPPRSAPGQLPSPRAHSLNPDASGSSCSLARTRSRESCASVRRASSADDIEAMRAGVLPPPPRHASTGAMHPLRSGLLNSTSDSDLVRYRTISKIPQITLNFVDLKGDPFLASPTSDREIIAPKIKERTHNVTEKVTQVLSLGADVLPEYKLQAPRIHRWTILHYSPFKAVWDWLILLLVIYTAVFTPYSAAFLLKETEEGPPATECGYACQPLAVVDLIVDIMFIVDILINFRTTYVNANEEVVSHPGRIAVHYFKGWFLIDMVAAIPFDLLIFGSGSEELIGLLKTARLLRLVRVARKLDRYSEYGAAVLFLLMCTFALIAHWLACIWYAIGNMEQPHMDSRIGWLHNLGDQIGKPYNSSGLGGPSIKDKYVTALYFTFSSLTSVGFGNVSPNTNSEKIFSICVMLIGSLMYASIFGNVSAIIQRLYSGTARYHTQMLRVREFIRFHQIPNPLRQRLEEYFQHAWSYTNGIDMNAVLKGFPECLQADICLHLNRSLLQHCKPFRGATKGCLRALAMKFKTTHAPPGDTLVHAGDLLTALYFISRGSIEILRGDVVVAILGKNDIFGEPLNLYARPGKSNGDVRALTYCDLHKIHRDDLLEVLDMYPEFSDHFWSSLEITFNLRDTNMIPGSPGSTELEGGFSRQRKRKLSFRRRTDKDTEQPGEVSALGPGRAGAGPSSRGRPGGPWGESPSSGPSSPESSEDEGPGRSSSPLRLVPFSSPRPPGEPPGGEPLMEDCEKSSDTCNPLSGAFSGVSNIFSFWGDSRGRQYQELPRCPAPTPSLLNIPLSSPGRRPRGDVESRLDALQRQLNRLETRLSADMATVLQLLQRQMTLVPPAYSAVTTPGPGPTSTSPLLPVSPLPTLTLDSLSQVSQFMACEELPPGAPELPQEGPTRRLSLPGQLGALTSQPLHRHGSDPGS

CCN(C(=O)c1cc(F)ccc1Oc1cncnc1N1CC2(CCN(C[C@@H]3CC[C@@H](NS(=O)(=O)C(C)C)CO3)CC2)C1)C(C)C [Example 3, N-Ethyl-5-fluoro-N-isopropyl-2-((4-(7-(((2S,5R)-5-((1-methylethyl)sulfonamido)tetrahydro-2H-pyran-2-yl)methyl)-2,7-diazaspiro[3.5]nonan-2-yl)pyrimidin-5-yl)oxy)benzamide] showed an IC50 [1] of under 100 nM.

CCN(C(=O)c1cc(F)ccc1Oc1cncnc1N1CC2(CCN(C[C@@H]3CC[C@@H](NS(=O)(=O)C4COC4)CO3)CC2)C1)C(C)C [Example 5, N-Ethyl-5-fluoro-N-isopropyl-2-((4-(7-(((2S,5R)-5-(oxetane-3-sulfonamido)tetrahydro-2H-pyran-2-yl)methyl)-2,7-diazaspiro[3.5]nonan-2-yl)pyrimidin-5-yl)oxy)benzamide] gave an IC50 [1] of under 100 nM.

With CCN(C(=O)c1cc(F)ccc1Oc1cncnc1N1CC2(CCN(C[C@@H]3CC[C@@H](NS(=O)(=O)CC4CC4)CO3)CC2)C1)C(C)C [Example 7, 2-((4-(7-(((2S,5R)-5-((Cyclopropylmethyl)sulfonamido)tetrahydro-2H-pyran-2-yl)methyl)-2,7-diazaspiro[3.5]nonan-2-yl)pyrimidin-5-yl)oxy)-N-ethyl-5-fluoro-N-isopropylbenzamide] the IC50 [1] was under 100 nM.

CCN(C(=O)c1cc(F)ccc1Oc1cncnc1N1CC2(CCN(C[C@@H]3CC[C@@H](NS(=O)(=O)CCOC)CO3)CC2)C1)C(C)C [Example 8, N-Ethyl-5-fluoro-N-isopropyl-2-((4-(7-(((2S,5R)-5-((2-methoxyethyl)sulfonamido)tetrahydro-2H-pyran-2-yl)methyl)-2,7-diazaspiro[3.5]nonan-2-yl)pyrimidin-5-yl)oxy)benzamide] gave an IC50 [1] of under 100 nM.

For CCCS(=O)(=O)N[C@@H]1CC[C@@H](CN2CCC3(CC2)CN(c2ncncc2Oc2ccc(F)cc2C(=O)N(CC)C(C)C)C3)OC1 [Example 9, N-Ethyl-5-fluoro-N-isopropyl-2-((4-(7-(((2S,5R)-5-(propylsulfonamido)tetrahydro-2H-pyran-2-yl)methyl)-2,7-diazaspiro[3.5]nonan-2-yl)pyrimidin-5-yl)oxy)benzamide], the IC50 [1] was under 100 nM.

CC(C)N(C(=O)c1cc(F)ccc1Oc1cncnc1N1CC2(CCN(C[C@@H]3CC[C@@H](NC(=O)OC(C)(C)C)CO3)CC2)C1)C1CC1 [Example 17, tert-Butyl ((3R,6S)-6-((2-(5-(2-(cyclopropyl(isopropyl)carbamoyl)-4-fluorophenoxy)pyrimidin-4-yl)-2,7-diazaspiro[3.5]nonan-7-yl)methyl)tetrahydro-2H-pyran-3-yl)carbamate] was tested, and the IC50 [1] was under 100 nM.

For CC(C)N(C(=O)c1cc(F)ccc1Oc1cncnc1N1CC2(CCN(C[C@@H]3CC[C@@H](NS(=O)(=O)C(C)C)CO3)CC2)C1)C1CC1 [Example 20, N-Cyclopropyl-5-fluoro-N-isopropyl-2-((4-(7-(((2S,5R)-5-((1-methylethyl)sulfonamido)tetrahydro-2H-pyran-2-yl)methyl)-2,7-diazaspiro[3.5]nonan-2-yl)pyrimidin-5-yl)oxy)benzamide], the IC50 [1] was under 100 nM.

CC(C)N(C(=O)c1cc(F)ccc1Oc1cncnc1N1CC2(CCN(C[C@@H]3CC[C@@H](NS(=O)(=O)C4COC4)CO3)CC2)C1)C1CC1 [Example 22, N-Cyclopropyl-5-fluoro-N-isopropyl-2-((4-(7-(((2S,5R)-5-(oxetane-3-sulfonamido)tetrahydro-2H-pyran-2-yl)methyl)-2,7-diazaspiro[3.5]nonan-2-yl)pyrimidin-5-yl)oxy)benzamide] gave an IC50 [1] of under 100 nM.

With C[C@@H]1COC[C@H](C)N1C(=O)c1cc(F)ccc1Oc1cncnc1N1CC2(CCN(C[C@@H]3CC[C@@H](NS(C)(=O)=O)CO3)CC2)C1 [Example 23, N-((3R,6S)-6-((2-(5-(2-((3S,5R)-3,5-Dimethylmorpholine-4-carbonyl)-4-fluorophenoxy)pyrimidin-4-yl)-2,7-diazaspiro[3.5]nonan-7-yl)methyl)tetrahydro-2H-pyran-3-yl)methanesulfonamide] the IC50 [1] was under 100 nM.

CCS(=O)(=O)N[C@@H]1CC[C@@H](CN2CCC3(CC2)CN(c2ncncc2Oc2ccc(F)cc2C(=O)N2[C@H](C)COC[C@@H]2C)C3)OC1 [Example 24, N-((3R,6S)-6-((2-(5-(2-((3S,5R)-3,5-dimethylmorpholine-4-carbonyl)-4-fluorophenoxy)pyrimidin-4-yl)-2,7-diazaspiro[3.5]nonan-7-yl)methyl)tetrahydro-2H-pyran-3-yl)ethanesulfonamide] gave an IC50 [1] of under 100 nM.

CC(C)S(=O)(=O)N[C@@H]1CC[C@@H](CN2CCC3(CC2)CN(c2ncncc2Oc2ccc(F)cc2C(=O)N2[C@H](C)COC[C@@H]2C)C3)OC1 [Example 25, N-((3R,6S)-6-((2-(5-(2-((3S,5R)-3,5-Dimethylmorpholine-4-carbonyl)-4-fluorophenoxy)pyrimidin-4-yl)-2,7-diazaspiro[3.5]nonan-7-yl)methyl)tetrahydro-2H-pyran-3-yl)propane-2-sulfonamide] showed an IC50 [1] of under 100 nM.

Work on C[C@@H]1COC[C@H](C)N1C(=O)c1cc(F)ccc1Oc1cncnc1N1CC2(CCN(C[C@@H]3CC[C@@H](NS(=O)(=O)C4CC4)CO3)CC2)C1 [Example 26, N-((3R,6S)-6-((2-(5-(2-((3S,5R)-3,5-Dimethylmorpholine-4-carbonyl)-4-fluorophenoxy)pyrimidin-4-yl)-2,7-diazaspiro[3.5]nonan-7-yl)methyl)tetrahydro-2H-pyran-3-yl)cyclopropanesulfonamide] yielded an IC50 [1] of under 100 nM.

In the case of CCN(C(=O)c1cc(F)ccc1Oc1cncnc1N1CC2(CCN(C[C@@H]3CC[C@@H](NS(=O)(=O)c4c[nH]c(=O)c(C)c4)CO3)CC2)C1)C(C)C [Example 218, N-Ethyl-5-fluoro-N-isopropyl-2-((4-(7-(((2S,5R)-5-((5-methyl-6-oxo-1,6-dihydropyridine)-3-sulfonamido)tetrahydro-2H-pyran-2-yl)methyl)-2,7-diazaspiro[3.5]nonan-2-yl)pyrimidin-5-yl)oxy)benzamide], the “hERG % Remaining” value (hERG) is reported as “+ (<33%)” and the IC50 [2, 3] is reported as under 100 nM.

With CC(C)N(C(=O)c1cc(F)ccc1Oc1cncnc1N1CC2(CCN(C[C@@H]3CC[C@@H](NS(=O)(=O)N4CC5COCC5C4)CO3)CC2)C1)C(C)C (stereo partly drawn) [Example 224, 5-Fluoro-2-((4-(7-(((2S,5R)-5-((hexahydro-1H-furo[3,4-c]pyrrole)-5-sulfonamido)tetrahydro-2H-pyran-2-yl)methyl)-2,7-diazaspiro[3.5]nonan-2-yl)pyrimidin-5-yl)oxy)-N,N-diisopropylbenzamide] the “hERG % Remaining” value (hERG) was “+++ (≥66%)” and the IC50 [2, 3] was under 100 nM.

CCS(=O)(=NC)N[C@@H]1CC[C@@H](CN2CCC3(CC2)CN(c2ncncc2Oc2ccc(F)cc2C(=O)N(C(C)C)C(C)C)C3)OC1 (stereo partly drawn) [Example 231, 5-Fluoro-N,N-diisopropyl-2-((4-(7-(((2S,5R)-5-(N′-methylethylsulfonoamidimidamido)tetrahydro-2H-pyran-2-yl)methyl)-2,7-diazaspiro[3.5]nonan-2-yl)pyrimidin-5-yl)oxy)benzamide] was tested, and the “hERG % Remaining” value (hERG) was “+++ (≥66%)” and the IC50 ([2]; MV4-11, 72 h, 11 IC50 (nM)) was under 100 nM.

For CC(C)N(CC(F)F)C(=O)c1cc(F)ccc1Oc1cncnc1N1CC2(CCN(C[C@@H]3CC[C@@H](NS(=O)(=O)c4nn(C)cc4F)CO3)CC2)C1 [Example 241, N-(2,2-Difluoroethyl)-5-fluoro-2-((4-(7-(((2S,5R)-5-((4-fluoro-1-methyl-1H-pyrazole)-3-sulfonamido)tetrahydro-2H-pyran-2-yl)methyl)-2,7-diazaspiro[3.5]nonan-2-yl)pyrimidin-5-yl)oxy)-N-isopropylbenzamide], the “hERG % Remaining” value (hERG) was “++ (233% and ≤66%)” and the IC50 [2, 3] was under 100 nM.
